Data on 17 molecules can be found in patent US11524966B1 (Valo Early Discovery, Inc., priority 2017, dated 2022).

In one test the target is T1, USP28 (His-tagged USP28-FL-mammalian) (Homo sapiens, UniProt Q96RU2).
T1 construct: Expression of USP28 (1-1077)-TEV-6*His (pTT5 vector); made in house; host or cells: Expi293f cells (pTT5 vector)
T1 sequence (Q96RU2 1-1077): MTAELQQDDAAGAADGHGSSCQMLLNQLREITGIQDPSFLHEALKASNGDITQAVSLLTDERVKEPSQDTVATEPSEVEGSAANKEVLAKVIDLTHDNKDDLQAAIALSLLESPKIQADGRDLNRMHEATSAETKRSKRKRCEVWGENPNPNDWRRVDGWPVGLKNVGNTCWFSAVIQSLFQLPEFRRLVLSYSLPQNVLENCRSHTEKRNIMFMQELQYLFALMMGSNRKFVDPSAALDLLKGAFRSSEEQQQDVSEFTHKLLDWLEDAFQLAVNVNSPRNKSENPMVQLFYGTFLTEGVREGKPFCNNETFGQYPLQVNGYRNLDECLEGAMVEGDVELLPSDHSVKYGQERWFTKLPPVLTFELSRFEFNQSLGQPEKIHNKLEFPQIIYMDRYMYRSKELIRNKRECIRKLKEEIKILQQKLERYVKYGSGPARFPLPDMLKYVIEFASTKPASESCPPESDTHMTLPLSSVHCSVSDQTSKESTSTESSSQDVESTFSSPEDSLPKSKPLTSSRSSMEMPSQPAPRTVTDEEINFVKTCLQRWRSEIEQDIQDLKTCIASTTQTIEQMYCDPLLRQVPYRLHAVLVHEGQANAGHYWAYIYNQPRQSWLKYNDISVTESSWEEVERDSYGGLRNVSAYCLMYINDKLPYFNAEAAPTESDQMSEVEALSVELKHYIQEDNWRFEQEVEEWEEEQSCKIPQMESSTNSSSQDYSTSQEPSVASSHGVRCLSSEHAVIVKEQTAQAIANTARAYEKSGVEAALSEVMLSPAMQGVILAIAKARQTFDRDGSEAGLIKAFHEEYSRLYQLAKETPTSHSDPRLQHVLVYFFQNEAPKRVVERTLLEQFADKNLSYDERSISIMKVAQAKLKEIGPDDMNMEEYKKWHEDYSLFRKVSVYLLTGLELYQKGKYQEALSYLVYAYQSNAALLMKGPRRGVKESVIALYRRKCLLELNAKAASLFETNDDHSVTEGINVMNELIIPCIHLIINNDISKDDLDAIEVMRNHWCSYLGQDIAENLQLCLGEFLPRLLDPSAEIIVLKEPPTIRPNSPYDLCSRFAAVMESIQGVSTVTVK
As to the kind of experiment: Ubiquitin-Rhodamine 110 Assay for USP28 Activity, Example A-1(a). The format is biochemical. The conditions noted are these: Ubiquitin-Rhodamine 110 assay, Example A-1(a); read-out: USP28 A-1(a) IC50 range. Summed up: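 Full-length His-tagged human USP28 (1-1077, Expi293f-expressed), […], with 25 nM Ub-Rh110 (<<Km) in pH 8.0 Tris buffer with BME, BGG, Triton X-100. 10-point dilutions (25 μM-1.3 nM), 45 min at room temperature, citric acid stop, fluorescence 485/535 nm; IC50 by 4-parameter fit.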
On to `Cc1nc2sc(C(=O)N[C@@H]3CCc4cc(N5CC6CCC(C5)N6)ccc4C3)c(N)c2cc1F` (single isomer, unassigned) [Example 11-4], for which the IC50 is 1 to 50 nM. Consider `COc1ccc2c(N)c(C(=O)N[C@@H]3CCc4cc(N5CC6CCC(C5)N6)ccc4C3)sc2n1` (single isomer, unassigned) [Example 11-6], for which the half-maximal inhibitory concentration (IC50) was 200 to 2000 nM.

With `Cc1cnc2c(N)c(C(=O)N[C@H]3CCc4cc(N5CC6CCC(C5)N6)ccc4C3)sc2n1` (single isomer, unassigned) [Example 11-7], the IC50 lay within 50 to 200 nM. Still for that read-out and setting: as for `Cc1cnc2c(N)c(C(=O)N[C@H]3CCc4cc(N5CCNC[C@H](O)C5)ccc4C3)sc2n1` (single isomer, unassigned) [Example 7-6], the figure is 200 to 2000 nM; as for `CCn1ccc2cc(C(=O)N[C@@H]3CCc4cc(N5CC6CCC(C5)N6)ccc4C3)nnc21` (single isomer, unassigned) [Example 11-23], 200 to 2000 nM; as for `Cc1cnc2c(N)c(C(=O)N[C@@H]3CCc4cc(N5CCNC[C@H](O)C5)ccc4C3)sc2n1` (single isomer, unassigned) [Example 7-7], 200 to 2000 nM. Same read-out and setting: as for `Cc1ccc2c(N)c(C(=O)N[C@@H]3CCc4cc(N5CCN[C@H](CO)C5)ccc4C3)sc2n1` (single isomer, unassigned) [Example 7-10], the figure is 50 to 200 nM; as for `Cc1nc2sc(C(=O)N[C@H]3CCc4cc(N5CC6CCC(C5)N6)ccc4C3)c(N)c2cc1F` (single isomer, unassigned) [Example 11-3], 50 to 200 nM. In the case of `Cc1cnc2c(N)c(C(=O)N[C@H]3CCc4cc(N5CC6CCC(C5)N6)cc(F)c4C3)sc2n1` (single isomer, unassigned) [Example 11-13], the 50% inhibitory concentration (IC50) is 200 to 2000 nM.

Staying with this test, now noted: Ubiquitin-Rhodamine 110 assay, format Example A-1(a); read-out: USP28 A-1(a) IC50 range.
Take `Cc1ccc2c(N)c(C(=O)N[C@@H]3CCc4cc(N5C6CNCC5C6)ccc4C3)sc2n1` (single isomer, unassigned) [Example 11-36]: the half-maximal inhibitory concentration (IC50) lay within 200 to 2000 nM. For `Cc1ccc2c(N)c(C(=O)N[C@H]3COc4nc(N5CCNCC5)c(F)cc4C3)sc2n1` [Example 20, (R)-3-Amino-N-(6-fluoro-7-(piperazin-1-yl)-3,4-dihydro-2H-pyrano[2,3-b]pyridin-3-yl)-6-methylthieno[2,3-b]pyridine-2-carboxamide], the IC50 was in the range of 50 to 200 nM. `Cc1ccc2c(N)c(C(=O)N[C@@H]3COc4cc(N5CC6CCC(C5)N6)c(F)c(F)c4C3)sc2n1` [Example 13-4, N-((3S)-7-(3,8-diazabicyclo[3.2.1]octan-3-yl)-5,6-difluorochroman-3-yl)-3-amino-6-methylthieno[2,3-b]pyridine-2-carboxamide]: the IC50 is 1 to 50 nM. For the molecule `Cc1ccc2c(N)c(C(=O)N[C@H]3CCc4c(F)c(N5CC6CNCC(C5)O6)cc(F)c4C3)sc2n1` (single isomer, unassigned) [Example 22-3], the IC50 lay in the range of 200 to 2000 nM. On to `Cc1nc2sc(C(=O)N[C@H]3CCc4cc(N5CC6CCC(C5)N6)ccc4C3)c(N)c2s1` (single isomer, unassigned) [Example 12-1], for which the 50% inhibitory concentration (IC50) was 200 to 2000 nM. `Cc1ccc2c(N)c(C(=O)N[C@@H]3CCc4c(F)c(N5CC6CCC(C5)N6)cc(F)c4C3)sc2n1` (single isomer, unassigned) [Example 22-6]: the IC50 lay within 200 to 2000 nM.

As to `Cc1ccc2c(N)c(C(=O)N[C@@H]3CCc4c(ccc(N5CC6CCC(C5)N6)c4F)C3)sc2n1` (single isomer, unassigned) [Example 21-1], the 50% inhibitory concentration (IC50) fell in the range of 50 to 200 nM. For the molecule `Cc1ccc2c(N)c(C(=O)N[C@@H]3CCc4c(F)c(N5CCNCC5)cc(F)c4C3)sc2n1` (single isomer, unassigned) [Example 22-2], the concentration for half-maximal inhibition (IC50) is 1 to 50 nM.
